Measurements from patent publication US20240139191A1, “SMALL MOLECULES AS LARP1 LIGANDS” (priority 2020, published 2024).

Molecular target: LARP1 DM15 region (Homo sapiens, UniProt Q6PKG0)
Test: binding of LARP1 DM15 region to capped RNA motifs
Details: relative to endogenous (human) m7GpppC motif; FIGS. 1B & C

## Cn1c[n+]([C@@H]2O[C@H](COP(=O)(O)OP(=O)(O)OP(=O)(O)OC[C@H]3O[C@@H](n4cnc5c(N)ncnc54)[C@H](O)[C@@H]3O)[C@@H](O)[C@H]2O)c2nc(N)[nH]c(=O)c21 [m^7GpppA]
  interaction with DM15 region compared with m7GpppC-initiated mRNA targets: even tighter interaction
